Laboratory results as given in the NIST ThermoML archive (doi:10.1021/je200721d).

Test: xn = mol fraction of the nth substance listed
Conditions: Liquid, Vibrating tube method

CCCCCCCC [octane] + CCCCCC
Conditions	mass density [kg/m3]
352.91 K, 7000 kPa, x2 = 0.1654	656.4
352.91 K, 7000 kPa, x2 = 0.9308	619.06
352.91 K, 8000 kPa, x2 = 0.1654	657.6
352.91 K, 8000 kPa, x2 = 0.9308	620.53
352.91 K, 9000 kPa, x2 = 0.1654	658.8
352.91 K, 9000 kPa, x2 = 0.9308	621.96
352.91 K, 10000 kPa, x2 = 0.1654	659.99
352.91 K, 10000 kPa, x2 = 0.9308	623.39
352.91 K, 11000 kPa, x2 = 0.1654	661.15
352.91 K, 11000 kPa, x2 = 0.9308	624.78
352.91 K, 12000 kPa, x2 = 0.1654	662.28
352.91 K, 12000 kPa, x2 = 0.9308	626.15
352.91 K, 13000 kPa, x2 = 0.1654	663.41
352.91 K, 13000 kPa, x2 = 0.9308	627.49
352.91 K, 14000 kPa, x2 = 0.1654	664.53
352.91 K, 14000 kPa, x2 = 0.9308	628.8
352.91 K, 15000 kPa, x2 = 0.1654	665.63
352.91 K, 15000 kPa, x2 = 0.9308	630.08
352.91 K, 16000 kPa, x2 = 0.1654	666.68
352.91 K, 16000 kPa, x2 = 0.9308	631.35
352.91 K, 17000 kPa, x2 = 0.1654	667.73
352.91 K, 17000 kPa, x2 = 0.9308	632.57
352.91 K, 18000 kPa, x2 = 0.1654	668.76
352.91 K, 18000 kPa, x2 = 0.9308	633.78
352.91 K, 19000 kPa, x2 = 0.1654	669.76
352.91 K, 19000 kPa, x2 = 0.9308	634.96
352.91 K, 20000 kPa, x2 = 0.1654	670.78
352.91 K, 20000 kPa, x2 = 0.9308	636.11
352.91 K, 21000 kPa, x2 = 0.1654	671.71
352.91 K, 21000 kPa, x2 = 0.9308	637.22
352.91 K, 22000 kPa, x2 = 0.1654	672.65
352.91 K, 22000 kPa, x2 = 0.9308	638.32
352.91 K, 23000 kPa, x2 = 0.1654	673.59
352.91 K, 23000 kPa, x2 = 0.9308	639.39
352.91 K, 24000 kPa, x2 = 0.1654	674.5
352.91 K, 24000 kPa, x2 = 0.9308	640.43
352.91 K, 25000 kPa, x2 = 0.1654	675.39
352.91 K, 25000 kPa, x2 = 0.9308	641.44
352.92 K, 1000 kPa, x2 = 0.7995	618.46
352.92 K, 2000 kPa, x2 = 0.7995	619.98
352.92 K, 3000 kPa, x2 = 0.7995	621.51
352.92 K, 4000 kPa, x2 = 0.7995	623
352.92 K, 5000 kPa, x2 = 0.7995	624.48
352.92 K, 6000 kPa, x2 = 0.7995	625.93
352.92 K, 7000 kPa, x2 = 0.7995	627.37
352.92 K, 8000 kPa, x2 = 0.7995	628.79
352.92 K, 9000 kPa, x2 = 0.7995	630.18
352.92 K, 10000 kPa, x2 = 0.7995	631.54
352.92 K, 11000 kPa, x2 = 0.7995	632.86
352.92 K, 12000 kPa, x2 = 0.7995	634.17
352.92 K, 13000 kPa, x2 = 0.7995	635.46
352.92 K, 14000 kPa, x2 = 0.7995	636.72
352.92 K, 15000 kPa, x2 = 0.7995	637.96
352.92 K, 16000 kPa, x2 = 0.7995	639.16
352.92 K, 17000 kPa, x2 = 0.7995	640.35
352.92 K, 18000 kPa, x2 = 0.7995	641.51
352.92 K, 19000 kPa, x2 = 0.7995	642.64
352.92 K, 20000 kPa, x2 = 0.7995	643.75
352.92 K, 21000 kPa, x2 = 0.7995	644.82
352.92 K, 22000 kPa, x2 = 0.7995	645.88
352.92 K, 23000 kPa, x2 = 0.7995	646.92
352.92 K, 24000 kPa, x2 = 0.7995	647.94
352.92 K, 25000 kPa, x2 = 0.7995	648.91
362.76 K, 1000 kPa, x2 = 0.5749	622.07
362.76 K, 2000 kPa, x2 = 0.5749	623.63
362.76 K, 3000 kPa, x2 = 0.5749	625.2
362.76 K, 4000 kPa, x2 = 0.5749	626.68
362.76 K, 5000 kPa, x2 = 0.5749	628.17
362.76 K, 6000 kPa, x2 = 0.5749	629.67
362.76 K, 7000 kPa, x2 = 0.5749	631.09
362.76 K, 8000 kPa, x2 = 0.5749	632.53
362.76 K, 9000 kPa, x2 = 0.5749	633.92
362.76 K, 10000 kPa, x2 = 0.5749	635.27
362.76 K, 11000 kPa, x2 = 0.5749	636.64
362.76 K, 12000 kPa, x2 = 0.5749	637.96
362.76 K, 13000 kPa, x2 = 0.5749	639.28
362.76 K, 14000 kPa, x2 = 0.5749	640.55
362.76 K, 15000 kPa, x2 = 0.5749	641.82
362.76 K, 16000 kPa, x2 = 0.5749	643.03
362.76 K, 17000 kPa, x2 = 0.5749	644.23
362.76 K, 18000 kPa, x2 = 0.5749	645.42
362.76 K, 19000 kPa, x2 = 0.5749	646.56
362.76 K, 20000 kPa, x2 = 0.5749	647.68
362.76 K, 21000 kPa, x2 = 0.5749	648.78
362.76 K, 22000 kPa, x2 = 0.5749	649.86
362.76 K, 23000 kPa, x2 = 0.5749	650.91
362.76 K, 24000 kPa, x2 = 0.5749	651.95
362.76 K, 25000 kPa, x2 = 0.5749	652.96
362.88 K, 1000 kPa, x2 = 0.1654	640.2
362.88 K, 1000 kPa, x2 = 0.2199	637.97
362.88 K, 2000 kPa, x2 = 0.1654	641.61
362.88 K, 2000 kPa, x2 = 0.2199	639.42
362.88 K, 3000 kPa, x2 = 0.1654	642.98
362.88 K, 3000 kPa, x2 = 0.2199	640.79
